Series [1] has as its target T1, ABCG2 (Homo sapiens, UniProt Q9UNQ0).
T1 sequence (Q9UNQ0 1-655): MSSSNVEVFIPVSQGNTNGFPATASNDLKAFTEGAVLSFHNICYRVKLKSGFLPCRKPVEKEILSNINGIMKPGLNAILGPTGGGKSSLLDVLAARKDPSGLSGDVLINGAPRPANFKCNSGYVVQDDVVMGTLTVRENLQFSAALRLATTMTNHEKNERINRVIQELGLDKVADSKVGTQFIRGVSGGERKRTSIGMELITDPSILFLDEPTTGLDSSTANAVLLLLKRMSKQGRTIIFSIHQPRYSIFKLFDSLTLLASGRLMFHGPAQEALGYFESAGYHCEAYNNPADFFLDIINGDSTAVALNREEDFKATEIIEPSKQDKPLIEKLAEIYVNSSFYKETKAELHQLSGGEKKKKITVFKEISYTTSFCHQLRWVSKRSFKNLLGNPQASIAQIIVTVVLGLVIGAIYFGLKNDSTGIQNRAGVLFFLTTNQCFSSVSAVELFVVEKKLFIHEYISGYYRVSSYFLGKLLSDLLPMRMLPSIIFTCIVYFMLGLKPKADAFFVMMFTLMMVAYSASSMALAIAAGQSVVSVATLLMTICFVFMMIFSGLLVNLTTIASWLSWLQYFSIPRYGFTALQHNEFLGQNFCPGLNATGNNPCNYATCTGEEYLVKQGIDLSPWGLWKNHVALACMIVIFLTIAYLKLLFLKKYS
In words: Vanadate-sensitive ATPase stimulation in ABCG2 membrane vesicles (Pi release); also inhibition of PhA efflux in ABCG2-transfected HEK293 cells. The class given is biochemical. The arrangement: membrane vesicles derived from ABCG2 baculovirus-infected High Five insect cells.

Series [2] has as its target T1, ABCG2. In words: Fluorescent substrate accumulation/efflux by flow cytometry in ABCG2-expressing versus parental cells. The class given is cell-based. On the set-up: human ABCG2-transfected R482-HEK293 cells; S1-MI-80 and H460-MX20 cells.

Molecule `CC(C)=CCOc1c2occc2cc2ccc(=O)oc12` [IMP, Imperatorin] registered an EC50 in series [1] of roughly 170 nM.

On to `C=Cc1c(C)c2cc3nc(c4c5[nH]c(cc6nc(cc1[nH]2)C(C)=C6CC)c(C)c5C(=O)[C@@H]4C(=O)OC)[C@@H](CCC(=O)O)[C@@H]3C` [PhA, pheophorbide A], for which the “Fluorescent substrate accumulation/efflux by flow cytometry in ABCG2-expressing” value in series [2] is given as “ABCG2-mediated efflux of an ABCG2-specific fluorescent substrate PhA”.

Values taken from article PMC10674403, “Imperatorin Restores Chemosensitivity of Multidrug-Resistant Cancer Cells by Antagonizing ABCG2-Mediated Drug Transport” (Pharmaceuticals, 2023).
